Results from patent US20150125425A1, “TREATMENT OF LIVER CANCER” (priority 2012, published 2015).

Key:
HuH7 xenografts = test: HSV1716 in combination with sorafenib in vivo in subcutaneous flank HuH7 xenografts; design: species or system nude mice
Procedure: Female 6-8 week old athymic nude mice (Charles River Labs, UK) were maintained under specific pathogen free conditions. Actively growing HuH7 cells were harvested and, after re-suspension in PBS, 1×10^6 cells per mouse were injected subcutaneously. Treatments were started when tumours reached 5 mm in diameter. Mice were inspected daily, when tumour diameters reached 15 mm they were sacrificed and the tumour xenograft removed for viral extraction. The viral load in tumours and various organs was assessed by plaque forming assay on Vero cells. Extracted intact tumours/organs were frozen immediately at −70° C. and, after thawing, the tissues were mechanically homogenized in a Retsch homogenizer in 1 ml PBS prior to titration.
Sorafenib for IP injections was obtained from Selleckchem UK, (S1040), and was reported as 100% pure. The dose was 10 mg/kg equivalent to 10 μg/g or 250 μg/mouse (25 g). The 0.1 ml intraperitoneal dose therefore required 250 μg/0.1 ml or 2.5 mg/ml. 50 mg sorafenib was dissolved in 0.5 ml DMSO and this was added to 19.5 ml PBS with 5% Tween80 and 5% PEG400 (both v/v). This is equivalent to c4 mM sorafenib. HSV1716gCluc which expresses luciferase from the HSV-1 gC promoter. The stock virus solution was 8×10^7 pfu/ml and 0.125 ml virus stock were added to 10 ml compound sodium lactate with 10% glycerol to give the injection solution at a titre of 1×10^6 pfu/ml. 0.1 ml injected it/mouse and is equivalent to 1×10^5 pfu.
In vivo combination with sorafenib and HSV1716 was analysed using the HuH7 subcutaneous xenograft HCC model in nude mice. Groups were—no treatment (n=10), sorafenib (n=6), HSV1716 (n=10), HSV1716 sorafenib (n=12). HSV1716gC-luc at 1×10^5 pfu was given on days 1, 3 and 9 and sorafenib at 10 mg/kg (Liu et al Cancer Res 2006; 66:11851-11858), was administered IP (Wang et al., Cancer Biol & Therapy 2011; 12:3, 229-238) every 2nd day from day 2 on 9 occasions. Virus was monitored by IVIS and tumour growth (FIG. 37) and survival (FIG. 38) were recorded.

HCC = conditions: monotherapy of HCC; cited from earlier work

Compound: CNC(=O)c1cc(Oc2ccc(NC(=O)Nc3ccc(Cl)c(C(F)(F)F)c3)cc2)ccn1 [sorafenib, 4-[4-[[4-chloro-3-(trifluoromethyl)phenyl]carbamoylamino]phenoxy]-N-methyl-pyridine-2-carboxamide]
- xenograft growth (HuH7 xenografts; HuH7 xenografts (FIG. 37)): inhibited
- mouse survival (HuH7 xenografts; HuH7 xenografts (FIG. 38)): survived longer than controls
- period in which no mice died (HuH7 xenografts; HuH7 xenografts (FIG. 38), virus 1×10^5 pfu days 1, 3, 9, sorafenib 10 mg/kg IP): about 4 days
- prolongation of median survival and the time to progression (HCC): ~3 months
- reduction of the risk of death during year 1 (HCC): 31%
